Reference: US20260138988A1, “Spiropyrrolidine Derived Antiviral Agents” (Enanta Pharmaceuticals, Inc., priority 2021, published 2026)
Read-outs that look alike come from different tables or passages of the source.

Target: SARS-CoV-2 3CL-protease (Severe acute respiratory syndrome coronavirus 2, UniProt P0DTD1)
Test: SARS-CoV-2 3C-Like (3CL) Protease Fluorescence Assay (FRET)
Type: biochemical
Conditions: test compounds 0-10 μM, duplicate
[1] = SARS-CoV-2 3CL-protease 10 nM, read-out: IC50
[2] = IC50, SARS-CoV-2 3CL-protease 10 nM

Compound	IC50 [1] [nM]	IC50 [2] [nM]
CC(C)C[C@@H](C(=O)N1C[C@]2(C[C@H]1C#N)C(=O)Nc1ccccc12)N(C)C(=O)[C@H](C)NC(=O)C1(F)CC2(CCC2)C1 [Example 141]	< 100	–
CC(C)C[C@@H](C(=O)N1C[C@]2(C[C@H]1C#N)C(=O)Nc1ccccc12)N(C)C(=O)[C@H](C)NC(=O)C(F)(F)CC(C)C [Example 142]	< 100	–
CC(C)C[C@@H](C(=O)N1C[C@]2(C[C@H]1C#N)C(=O)Nc1ccccc12)N(C)C(=O)[C@H](C)NC(=O)C1(F)CCCC1 [Example 143]	< 100	–
CC(C)C[C@@H](C(=O)N1C[C@]2(C[C@H]1C#N)C(=O)Nc1ccccc12)N(C)C(=O)[C@H](C)NC(=O)C(F)(F)C(F)(F)C(F)(F)C(F)(F)F [Example 144]	–	< 100
CC(C)C[C@@H](C(=O)N1C[C@]2(C[C@H]1C#N)C(=O)Nc1ccccc12)N(C)C(=O)[C@H](C)NC(=O)c1ccc(F)cc1C(F)(F)F [Example 145]	< 100	–
CC(C)C[C@@H](C(=O)N1C[C@]2(C[C@H]1C#N)C(=O)Nc1ccccc12)N(C)C(=O)[C@H](C)NC(=O)c1cccc(-c2ccc(F)cc2F)c1 [Example 146]	< 100	–
CC(C)C[C@@H](C(=O)N1C[C@]2(C[C@H]1C#N)C(=O)Nc1ccccc12)N(C)C(=O)[C@H](C)NC(=O)c1cccc(-c2ccc(C(F)(F)F)cc2)c1 [Example 147]	< 100	–
C[C@H](NC(=O)C(F)(F)C(F)(F)F)C(=O)N(C)[C@@H](CC1CC1)C(=O)N1C[C@]2(C[C@H]1C#N)C(=O)Nc1ccc(Br)cc12 [Example 167]	< 100	–
CC(C)C[C@@H](C(=O)N1C[C@]2(C[C@H]1C#N)C(=O)Nc1ccc(Cl)cc12)N(C)C(=O)[C@H](C)NC(=O)C(F)(F)C(F)(F)F [Example 168]	< 100	–
CC(C)C[C@@H](C(=O)N1C[C@]2(C[C@H]1C#N)C(=O)Nc1ccc(Br)cc12)N(C)C(=O)[C@H](C)NC(=O)C(F)(F)C(F)(F)F [Example 169]	< 100	–
C[C@H](NC(=O)C(F)(F)C(F)(F)F)C(=O)N(C)[C@@H](CC1CC1)C(=O)N1C[C@]2(C[C@H]1C#N)C(=O)Nc1ccc(Cl)cc12 [Example 170]	< 100	–
C[C@H](NC(=O)C(F)(F)C(F)(F)F)C(=O)N(C)[C@@H](CC(C)(C)C)C(=O)N1C[C@]2(C[C@H]1C#N)C(=O)Nc1ccc(Br)cc12 [Example 171]	< 100	–
C[C@H](NC(=O)C(F)(F)C(F)(F)F)C(=O)N(C)[C@@H](CC(C)(C)C)C(=O)N1C[C@]2(C[C@H]1C#N)C(=O)N(Cl)c1ccc(Cl)cc12 [Example 172]	< 100	–
C[C@H](NC(=O)C(F)(F)C(F)(F)F)C(=O)N(C)[C@@H](CC(C)(C)C)C(=O)N1C[C@]2(C[C@H]1C#N)C(=O)Nc1c(Cl)cc(Cl)cc12 [Example 173]	< 100	–
C[C@H](NC(=O)C(F)(F)C(F)(F)F)C(=O)N(C)[C@@H](CC(C)(C)C)C(=O)N1C[C@]2(C[C@H]1C#N)C(=O)Nc1ccc(Cl)cc12 [Example 174]	< 100	–
CN(C(=O)c1cc2c([nH]1)CN(C(=O)C(F)(F)F)CC2)[C@@H](CC(C)(C)C)C(=O)N1C[C@]2(C[C@H]1C#N)C(=O)Nc1ccccc12 [Example 175]	100 to 1000	–
CC(C)N1CCc2cc(C(=O)N(C)[C@@H](CC(C)(C)C)C(=O)N3C[C@]4(C[C@H]3C#N)C(=O)Nc3ccccc34)[nH]c2C1 [Example 176]	< 100	–
CN(C(=O)[C@@H]1C[C@@H]2CCCC[C@@H]2N1C(=O)C(F)(F)F)[C@@H](CC(C)(C)C)C(=O)N1C[C@]2(C[C@H]1C#N)C(=O)Nc1ccccc12 [Example 177]	100 to 1000	–
CC(C)N1[C@H](C(=O)N(C)[C@@H](CC(C)(C)C)C(=O)N2C[C@]3(C[C@H]2C#N)C(=O)Nc2ccccc23)C[C@@H]2CCC[C@@H]21 [Example 178]	< 100	–
CCN1C[C@H]2CCCC[C@H]2C[C@H]1C(=O)N(C)[C@@H](CC(C)(C)C)C(=O)N1C[C@]2(C[C@H]1C#N)C(=O)Nc1ccccc12 [Example 179]	< 100	–
CC(C)N1[C@H](C(=O)N(C)[C@@H](CC(C)(C)C)C(=O)N2C[C@]3(C[C@H]2C#N)C(=O)Nc2ccccc23)C[C@@H]2CCCC[C@@H]21 [Example 180]	< 100	–
CC(C)N1C[C@@H]2CCC[C@@H]2[C@H]1C(=O)N(C)[C@@H](CC(C)(C)C)C(=O)N1C[C@]2(C[C@H]1C#N)C(=O)Nc1ccccc12 [Example 181]	< 100	–
CC(C)N1C[C@]2(C[C@H]1C(=O)N(C)[C@@H](CC(C)(C)C)C(=O)N1C[C@]3(C[C@H]1C#N)C(=O)Nc1ccccc13)C(=O)Nc1ccccc12 [Example 183]	100 to 1000	–
CC(C)N1c2ccccc2C[C@H]1C(=O)N(C)[C@@H](CC(C)(C)C)C(=O)N1C[C@]2(C[C@H]1C#N)C(=O)Nc1ccccc12 [Example 184]	< 100	–
CC(C)C[C@@H](C(=O)N1C[C@]2(C[C@H]1C#N)C(=O)Nc1ccccc12)N(C)C(=O)[C@H](C)NC(=O)c1c(F)ccc2[nH]ccc12 [Example 185]	< 100	–
CC(C)C[C@@H](C(=O)N1C[C@]2(C[C@H]1C#N)C(=O)Nc1ccccc12)N(C)C(=O)[C@H](C)NC(=O)c1cc2[nH]ccc2cc1F [Example 186]	< 100	–

Compound	IC50 [1] [nM]	IC50 [2] [nM]
CC(C)C[C@@H](C(=O)N1C[C@]2(C[C@H]1C#N)C(=O)Nc1ccccc12)N(C)C(=O)[C@H](C)NC(=O)c1c(F)ccc2ccoc12 [Example 187]	< 100	–
CC(C)C[C@@H](C(=O)N1C[C@]2(C[C@H]1C#N)C(=O)Nc1ccccc12)N(C)C(=O)[C@H](C)NC(=O)c1cc2occc2cc1F [Example 188]	< 100	–
CC(C)C[C@@H](C(=O)N1C[C@]2(C[C@H]1C#N)C(=O)Nc1ccccc12)N(C)C(=O)[C@H](C)NC(=O)c1ccc2c(c1)OCC2 [Example 190]	< 100	–
[2H]C([2H])([2H])N(C(=O)[C@H](C)NC(=O)C(F)(F)F)[C@@H](CCCC)C(=O)N1C[C@]2(C[C@H]1C#N)C(=O)Nc1ccccc12 [Example 191]	< 100	–
[2H]C([2H])([2H])N(C(=O)[C@H](C)NC(=O)C(F)(F)C(F)(F)F)[C@@H](CCCC)C(=O)N1C[C@]2(C[C@H]1C#N)C(=O)Nc1ccccc12 [Example 192]	< 100	–
CC[C@H](NC(=O)C(=O)Nc1c(F)cccc1C(F)(F)F)C(=O)N(C)[C@@H](CC(C)C)C(=O)N1C[C@]2(C[C@H]1C#N)C(=O)Nc1ccccc12 [Example 193]	< 100	–
CC[C@H](NC(=O)c1ccc(F)cc1C(F)(F)F)C(=O)N(C)[C@@H](CC(C)C)C(=O)N1C[C@]2(C[C@H]1C#N)C(=O)Nc1ccccc12 [Example 194]	< 100	–
C[C@H](NC(=O)C1(F)C(F)(F)C1(F)F)C(=O)N(C)[C@@H](CC1CC1)C(=O)N1C[C@]2(C[C@H]1C#N)C(=O)Nc1ccccc12 [Example 195]	< 100	–
CC[C@H](NC(=O)C1(F)C(F)(F)C1(F)F)C(=O)N(C)[C@@H](CC(C)C)C(=O)N1C[C@]2(C[C@H]1C#N)C(=O)Nc1ccccc12 [Example 196]	< 100	–
CC(C)C[C@@H](C(=O)N1C[C@]2(C[C@H]1C#N)C(=O)Nc1ccccc12)N(C)C(=O)[C@H](C)NC(=O)C(F)(F)C1CCCC1 [Example 197]	< 100	–
C[C@H](NC(=O)C(F)(F)C(F)(F)C(F)(F)F)C(=O)N(C)[C@@H](C)C(=O)N1C[C@]2(C[C@H]1C#N)C(=O)Nc1ccccc12 [Example 198]	–	< 100
CC[C@H](NC(=O)C(F)(F)F)C(=O)N(C)[C@@H](CC(C)C)C(=O)N1C[C@]2(C[C@H]1C#N)C(=O)Nc1ccccc12 [Example 199]	< 100	–
CC[C@H](NC(=O)C(F)(F)C(F)(F)F)C(=O)N(C)[C@@H](CC(C)C)C(=O)N1C[C@]2(C[C@H]1C#N)C(=O)Nc1ccccc12 [Example 200]	< 100	–
CC[C@H](NC(=O)C(F)(F)C(F)(F)C(F)(F)F)C(=O)N(C)[C@@H](CC(C)C)C(=O)N1C[C@]2(C[C@H]1C#N)C(=O)Nc1ccccc12 [Example 201]	–	< 100
CC(C)C[C@@H](C(=O)N1C[C@]2(C[C@H]1C#N)C(=O)Nc1ccccc12)N(C)C(=O)[C@H](C)NC(=O)C(=O)Nc1c(F)cccc1C(F)(F)F [Example 202]	< 100	–
C[C@H](NC(=O)C(F)(F)F)C(=O)N(C)[C@@H](CC1CC1)C(=O)N1C[C@]2(C[C@H]1C#N)C(=O)Nc1ccccc12 [Example 203]	< 100	–
C[C@H](NC(=O)C(F)(F)F)C(=O)N(C)[C@@H](C)C(=O)N1C[C@]2(C[C@H]1C#N)C(=O)Nc1ccccc12 [Example 204]	< 100	–
C[C@H](NC(=O)C(F)(F)C(F)(F)F)C(=O)N(C)[C@@H](CC1CC1)C(=O)N1C[C@]2(C[C@H]1C#N)C(=O)Nc1ccccc12 [Example 205]	< 100	–
C[C@H](NC(=O)C(F)(F)C(F)(F)C(F)(F)F)C(=O)N(C)[C@@H](CC1CC1)C(=O)N1C[C@]2(C[C@H]1C#N)C(=O)Nc1ccccc12 [Example 206]	–	< 100
C[C@H](NC(=O)C(F)(F)C(F)(F)F)C(=O)N(C)[C@@H](C)C(=O)N1C[C@]2(C[C@H]1C#N)C(=O)Nc1ccccc12 [Example 207]	< 100	–
C[C@H](NC(=O)c1cc2c(F)cc(F)c(F)c2[nH]1)C(=O)N(C)[C@@H](CC(C)(C)C)C(=O)N1C[C@]2(C[C@H]1C#N)C(=O)Nc1ccccc12 [Example 208]	< 100	–
C[C@H](NC(=O)C(C)(C)C)C(=O)N(C)[C@@H](CC(C)(C)C)C(=O)N1C[C@]2(C[C@H]1C#N)C(=O)Nc1ccccc12 [Example 209]	< 100	–
C[C@H](NC(=O)c1cc(OC(F)(F)F)c2ncccc2c1)C(=O)N(C)[C@@H](CC(C)(C)C)C(=O)N1C[C@]2(C[C@H]1C#N)C(=O)Nc1ccccc12 [Example 210]	< 100	–
C[C@H](NC(=O)c1ccc(Cl)cc1)C(=O)N(C)[C@@H](CC(C)(C)C)C(=O)N1C[C@]2(C[C@H]1C#N)C(=O)Nc1ccccc12 [Example 211]	< 100	–
C[C@H](NC(=O)c1ccc(Cl)c(Cl)c1)C(=O)N(C)[C@@H](CC(C)(C)C)C(=O)N1C[C@]2(C[C@H]1C#N)C(=O)Nc1ccccc12 [Example 212]	< 100	–
C[C@H](NC(=O)c1ccc(C(C)(C)C)cc1)C(=O)N(C)[C@@H](CC(C)(C)C)C(=O)N1C[C@]2(C[C@H]1C#N)C(=O)Nc1ccccc12 [Example 213]	< 100	–
